# Results: patent US20260053812A1, “METHODS OF TREATING HYPERTENSION WITH A COMBINATION OF AN ALDOSTERONE SYNTHASE INHIBITOR AND A DIURETIC” (Mineralys Therapeutics, Inc., priority 2022, published 2026)
# Columns and labels:
# [1] = Estimated glomerular filtration rate (eGFR, CKD-EPI equation); assay type: in vivo, human
# [2] = Clinical laboratory evaluations, vital signs, physical examination, ECG; assay type: in vivo, human
# Description: Safety endpoints of this study are: • (a) Incidence and severity of all spontaneously reported adverse events (AEs) • (b) Changes in vital signs (standing SBP, standing DBP, body temperature, heart rate, and respiratory rate) • (c) Changes in electrocardiogram parameters (including cardiac intervals: PR, QRS, QT, and corrected QT interval using Fridericia's formula) • (d) Changes in clinical laboratory assessments (hematology, chemistry, coagulation, and urinalysis) • (e) Change in office-measured SBP from Study Week 8 (end-of-treatment period to end of follow up (i.e. end of Study Week 12 for Part 1 and end of Study 10 for Part 2).
smiles,measurement,setting,value
CC(=O)N[C@H]1CC[C@H](NC(=O)CN2CCN(c3nncc(-c4ccc(C)cc4)n3)CC2)CC1 [Compound A HBr],"Estimated Glomerular Filtration Rate, mean change from baseline","[1]; Part 1, 50 mg QD, Week 1",−2.96 mL/min/1.73 m^2
same,"Estimated Glomerular Filtration Rate, mean observed","[1]; Part 1, 50 mg QD, Week 1",74.21 mL/min/1.73 m^2
same,"Estimated Glomerular Filtration Rate, mean change from baseline","[1]; Part 1, 50 mg QD, Week 2",−4.32 mL/min/1.73 m^2
same,"Estimated Glomerular Filtration Rate, mean observed","[1]; Part 1, 50 mg QD, Week 2",72.86 mL/min/1.73 m^2
same,"Estimated Glomerular Filtration Rate, mean change from baseline","[1]; Part 1, 50 mg QD, Week 3",−2.35 mL/min/1.73 m^2
same,"Estimated Glomerular Filtration Rate, mean observed","[1]; Part 1, 50 mg QD, Week 3",74.81 mL/min/1.73 m^2
same,"Estimated Glomerular Filtration Rate, mean change from baseline","[1]; Part 1, 50 mg QD, Week 4",−3.61 mL/min/1.73 m^2
same,"Estimated Glomerular Filtration Rate, mean observed","[1]; Part 1, 50 mg QD, Week 4",73.63 mL/min/1.73 m^2
same,"Estimated Glomerular Filtration Rate, mean change from baseline","[1]; Part 1, 50 mg QD, Week 5",−4.10 mL/min/1.73 m^2
same,"Estimated Glomerular Filtration Rate, mean observed","[1]; Part 1, 50 mg QD, Week 5",70.58 mL/min/1.73 m^2
same,"Estimated Glomerular Filtration Rate, mean change from baseline","[1]; Part 1, 50 mg QD, Week 6",−2.83 mL/min/1.73 m^2
same,"Estimated Glomerular Filtration Rate, mean observed","[1]; Part 1, 50 mg QD, Week 6",74.63 mL/min/1.73 m^2
same,"Estimated Glomerular Filtration Rate, mean change from baseline","[1]; Part 1, 50 mg QD, Week 7",−5.46 mL/min/1.73 m^2
same,"Estimated Glomerular Filtration Rate, mean observed","[1]; Part 1, 50 mg QD, Week 7",69.68 mL/min/1.73 m^2
same,"Estimated Glomerular Filtration Rate, mean change from baseline","[1]; Part 1, 50 mg QD, Week 8",−4.64 mL/min/1.73 m^2
same,"Estimated Glomerular Filtration Rate, mean observed","[1]; Part 1, 50 mg QD, Week 8",72.54 mL/min/1.73 m^2
same,"Estimated Glomerular Filtration Rate, mean observed","[1]; Part 1, 100 mg QD, BL",77.35 mL/min/1.73 m^2
same,"Estimated Glomerular Filtration Rate, mean change from baseline","[1]; Part 1, 100 mg QD, Week 1",−6.80 mL/min/1.73 m^2
same,"Estimated Glomerular Filtration Rate, mean observed","[1]; Part 1, 100 mg QD, Week 1",70.81 mL/min/1.73 m^2
same,"Estimated Glomerular Filtration Rate, mean change from baseline","[1]; Part 1, 100 mg QD, Week 2",−10.91 mL/min/1.73 m^2
same,"Estimated Glomerular Filtration Rate, mean observed","[1]; Part 1, 100 mg QD, Week 2",65.56 mL/min/1.73 m^2
same,"Estimated Glomerular Filtration Rate, mean change from baseline","[1]; Part 1, 100 mg QD, Week 3",−9.24 mL/min/1.73 m^2
same,"Estimated Glomerular Filtration Rate, mean observed","[1]; Part 1, 100 mg QD, Week 3",67.22 mL/min/1.73 m^2
same,"Estimated Glomerular Filtration Rate, mean change from baseline","[1]; Part 1, 100 mg QD, Week 4",−9.46 mL/min/1.73 m^2
same,"Estimated Glomerular Filtration Rate, mean observed","[1]; Part 1, 100 mg QD, Week 4",67.23 mL/min/1.73 m^2
same,"Estimated Glomerular Filtration Rate, mean change from baseline","[1]; Part 1, 100 mg QD, Week 5",−10.50 mL/min/1.73 m^2
same,"Estimated Glomerular Filtration Rate, mean observed","[1]; Part 1, 100 mg QD, Week 5",66.19 mL/min/1.73 m^2
same,"Estimated Glomerular Filtration Rate, mean change from baseline","[1]; Part 1, 100 mg QD, Week 6",−9.94 mL/min/1.73 m^2
same,"Estimated Glomerular Filtration Rate, mean observed","[1]; Part 1, 100 mg QD, Week 6",66.19 mL/min/1.73 m^2
same,"Estimated Glomerular Filtration Rate, mean change from baseline","[1]; Part 1, 100 mg QD, Week 7",−9.50 mL/min/1.73 m^2
same,"Estimated Glomerular Filtration Rate, mean observed","[1]; Part 1, 100 mg QD, Week 7",66.96 mL/min/1.73 m^2
same,"Estimated Glomerular Filtration Rate, mean change from baseline","[1]; Part 1, 100 mg QD, Week 8",−7.83 mL/min/1.73 m^2
same,"Estimated Glomerular Filtration Rate, mean observed","[1]; Part 1, 100 mg QD, Week 8",68.42 mL/min/1.73 m^2
same,"Estimated Glomerular Filtration Rate, mean observed","[1]; Part 2, 100 mg QD, BL",79.90 mL/min/1.73 m^2
same,"Estimated Glomerular Filtration Rate, mean change from baseline","[1]; Part 2, 100 mg QD, Week 1",−9.65 mL/min/1.73 m^2
same,"Estimated Glomerular Filtration Rate, mean observed","[1]; Part 2, 100 mg QD, Week 1",70.73 mL/min/1.73 m^2
same,"Estimated Glomerular Filtration Rate, mean change from baseline","[1]; Part 2, 100 mg QD, Week 2",−8.05 mL/min/1.73 m^2
same,"Estimated Glomerular Filtration Rate, mean observed","[1]; Part 2, 100 mg QD, Week 2",72.07 mL/min/1.73 m^2
same,"Estimated Glomerular Filtration Rate, mean change from baseline","[1]; Part 2, 100 mg QD, Week 3",−7.33 mL/min/1.73 m^2
same,"Estimated Glomerular Filtration Rate, mean observed","[1]; Part 2, 100 mg QD, Week 3",72.69 mL/min/1.73 m^2
same,"Estimated Glomerular Filtration Rate, mean change from baseline","[1]; Part 2, 100 mg QD, Week 4",−7.20 mL/min/1.73 m^2
same,"Estimated Glomerular Filtration Rate, mean observed","[1]; Part 2, 100 mg QD, Week 4",72.92 mL/min/1.73 m^2
same,"Estimated Glomerular Filtration Rate, mean change from baseline","[1]; Part 2, 100 mg QD, Week 5",−8.69 mL/min/1.73 m^2
same,"Estimated Glomerular Filtration Rate, mean observed","[1]; Part 2, 100 mg QD, Week 5",71.23 mL/min/1.73 m^2
same,"Estimated Glomerular Filtration Rate, mean change from baseline","[1]; Part 2, 100 mg QD, Week 6",−10.87 mL/min/1.73 m^2
same,"Estimated Glomerular Filtration Rate, mean observed","[1]; Part 2, 100 mg QD, Week 6",68.04 mL/min/1.73 m^2
same,"Estimated Glomerular Filtration Rate, mean change from baseline","[1]; Part 2, 100 mg QD, Week 7",−7.34 mL/min/1.73 m^2
same,"Estimated Glomerular Filtration Rate, mean observed","[1]; Part 2, 100 mg QD, Week 7",72.82 mL/min/1.73 m^2
same,"Estimated Glomerular Filtration Rate, mean change from baseline","[1]; Part 2, 100 mg QD, Week 8",−7.95 mL/min/1.73 m^2
same,"Estimated Glomerular Filtration Rate, mean observed","[1]; Part 2, 100 mg QD, Week 8",72.43 mL/min/1.73 m^2
same,Change in estimated glomerular filtration rate (eGFR),[1]; across dosing cohorts,dose-dependent and reversible reduction
same,"Clinical chemistry, hematology, coagulation, urinalysis changes from baseline to Week 8",[2]; Part 1 or Part 2,no meaningful changes
same,"Vital signs, physical examination, ECG parameters",[2]; Parts 1 and 2,no notable findings
same,Serum creatinine levels,"[2]; active treatment cohorts compared with placebo, Parts 1 and 2",increased
